Data as given in patent US20250320193A1, “OXOISOINDOLINYL SUBSTITUTED PIPERIDINEDIONE DERIVATIVE AND USE THEREOF” (GLUETACS THERAPEUTICS (SHANGHAI) CO., LTD., priority 2022, published 2025).

Key:
[1] = target: human Cereblon WT GST-tagged protein (Homo sapiens (Human), UniProt Q96SW2); test: CRBN-binding affinity, HTRF (CEREBLON BINDING kit, CISBIO); conditions: HTRF inhibitory activity
In short: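 HTRF competition format: test compound displaces Thalidomide-Red from GST-tagged human Cereblon WT, detected with a Eu-labelled anti-GST antibody. Percent CRBN binding inhibition was derived from the 620 nm signal, normalized to solvent-control and protein-free blank wells.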

[2] = target: IKZF3 (Homo sapiens (Human), UniProt Q96SW2+Q9UKT9); test: Western blot, substrate protein expression in hPBMC: IKZF3; assay type: cell-based; conditions: hPBMC, compound 500 nM, 24 hours, Western blot
Sequence of IKZF3 (Q9UKT9 whole entry): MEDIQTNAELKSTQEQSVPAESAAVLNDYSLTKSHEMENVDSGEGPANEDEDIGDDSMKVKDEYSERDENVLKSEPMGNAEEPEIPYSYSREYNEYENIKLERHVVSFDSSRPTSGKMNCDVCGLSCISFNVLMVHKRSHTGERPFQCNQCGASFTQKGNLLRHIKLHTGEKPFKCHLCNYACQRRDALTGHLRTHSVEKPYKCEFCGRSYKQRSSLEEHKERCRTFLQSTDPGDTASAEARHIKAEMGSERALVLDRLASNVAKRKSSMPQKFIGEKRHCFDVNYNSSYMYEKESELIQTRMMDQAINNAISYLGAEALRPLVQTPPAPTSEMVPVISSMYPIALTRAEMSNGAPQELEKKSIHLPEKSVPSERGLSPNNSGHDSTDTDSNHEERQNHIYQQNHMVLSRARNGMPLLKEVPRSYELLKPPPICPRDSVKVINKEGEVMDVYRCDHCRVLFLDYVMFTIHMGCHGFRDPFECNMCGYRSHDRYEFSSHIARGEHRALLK
Sequence of IKZF3 (Q96SW2 whole entry): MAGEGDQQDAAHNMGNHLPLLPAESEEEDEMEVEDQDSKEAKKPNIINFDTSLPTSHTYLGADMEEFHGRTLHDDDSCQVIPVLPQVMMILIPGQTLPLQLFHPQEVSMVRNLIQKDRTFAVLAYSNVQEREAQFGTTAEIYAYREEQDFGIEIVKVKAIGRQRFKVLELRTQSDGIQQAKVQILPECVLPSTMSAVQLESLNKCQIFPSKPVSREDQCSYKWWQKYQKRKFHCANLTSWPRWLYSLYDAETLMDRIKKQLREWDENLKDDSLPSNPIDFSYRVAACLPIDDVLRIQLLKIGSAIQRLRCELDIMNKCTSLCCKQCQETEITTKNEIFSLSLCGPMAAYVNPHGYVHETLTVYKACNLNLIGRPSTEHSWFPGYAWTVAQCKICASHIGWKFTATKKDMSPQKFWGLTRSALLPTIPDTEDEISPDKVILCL
Sequence of IKZF3 (Q16531 whole entry partner): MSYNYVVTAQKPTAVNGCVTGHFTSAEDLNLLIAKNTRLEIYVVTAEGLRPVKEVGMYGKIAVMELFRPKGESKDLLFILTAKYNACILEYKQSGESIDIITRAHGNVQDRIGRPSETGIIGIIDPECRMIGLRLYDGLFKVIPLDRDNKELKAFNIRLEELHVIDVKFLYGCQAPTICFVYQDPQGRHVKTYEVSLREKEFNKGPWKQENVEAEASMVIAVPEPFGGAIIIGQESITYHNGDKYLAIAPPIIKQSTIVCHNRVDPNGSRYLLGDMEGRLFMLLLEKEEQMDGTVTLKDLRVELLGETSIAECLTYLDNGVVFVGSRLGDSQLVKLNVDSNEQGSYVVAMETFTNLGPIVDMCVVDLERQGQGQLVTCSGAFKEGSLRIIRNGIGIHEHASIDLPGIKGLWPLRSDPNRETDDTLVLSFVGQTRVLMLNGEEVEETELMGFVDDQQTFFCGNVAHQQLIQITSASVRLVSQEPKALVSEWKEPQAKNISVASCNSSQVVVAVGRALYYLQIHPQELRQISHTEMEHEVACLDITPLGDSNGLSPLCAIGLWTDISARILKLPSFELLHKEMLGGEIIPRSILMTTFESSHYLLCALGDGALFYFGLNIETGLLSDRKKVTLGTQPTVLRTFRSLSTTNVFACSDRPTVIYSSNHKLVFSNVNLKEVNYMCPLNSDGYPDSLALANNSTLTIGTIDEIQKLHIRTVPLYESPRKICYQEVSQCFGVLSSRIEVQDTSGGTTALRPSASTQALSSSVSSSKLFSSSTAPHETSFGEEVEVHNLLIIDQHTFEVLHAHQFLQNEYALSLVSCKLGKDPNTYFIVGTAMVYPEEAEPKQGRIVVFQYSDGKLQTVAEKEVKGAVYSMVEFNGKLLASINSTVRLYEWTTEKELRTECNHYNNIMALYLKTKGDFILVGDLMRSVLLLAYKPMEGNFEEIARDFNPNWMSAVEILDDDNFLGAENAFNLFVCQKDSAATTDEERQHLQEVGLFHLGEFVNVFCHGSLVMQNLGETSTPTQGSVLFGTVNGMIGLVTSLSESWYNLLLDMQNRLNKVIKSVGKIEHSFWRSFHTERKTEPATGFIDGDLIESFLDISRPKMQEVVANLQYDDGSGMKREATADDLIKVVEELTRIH
In short: (§1)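 hPBMC, 1×10^6 cells/mL, 24 h compound exposure; RIPA lysis, BCA protein assay, SDS-PAGE, NC membrane immunoblot. Densitometry vs internal control → % protein remaining; degradation % = 100% − remaining; DC50 = conc. at 50% of DMSO band signal.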

[3] = target: IKZF1 (Homo sapiens (Human), UniProt Q13422+Q96SW2); test: Western blot, substrate protein expression in hPBMC: IKZF1; assay type: cell-based; conditions: hPBMC, compound 500 nM, 24 hours, Western blot
Sequence of IKZF1 (Q13422 whole entry): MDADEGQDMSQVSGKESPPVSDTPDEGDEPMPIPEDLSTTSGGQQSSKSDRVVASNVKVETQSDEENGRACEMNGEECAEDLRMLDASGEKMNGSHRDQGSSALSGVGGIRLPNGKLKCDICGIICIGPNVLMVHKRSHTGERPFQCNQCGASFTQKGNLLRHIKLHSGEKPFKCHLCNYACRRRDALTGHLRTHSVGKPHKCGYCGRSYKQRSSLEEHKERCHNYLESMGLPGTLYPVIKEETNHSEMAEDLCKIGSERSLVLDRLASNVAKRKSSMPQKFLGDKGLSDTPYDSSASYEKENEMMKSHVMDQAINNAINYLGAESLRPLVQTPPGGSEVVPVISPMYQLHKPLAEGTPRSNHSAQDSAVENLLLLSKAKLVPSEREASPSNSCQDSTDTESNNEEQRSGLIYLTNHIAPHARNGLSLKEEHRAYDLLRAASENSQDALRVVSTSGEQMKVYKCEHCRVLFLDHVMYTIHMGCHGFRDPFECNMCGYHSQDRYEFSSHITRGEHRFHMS
Sequence of IKZF1 (Q96SW2 whole entry): as the sequence (Q96SW2 whole entry) above
Sequence of IKZF1 (Q16531 whole entry partner): as the sequence (Q16531 whole entry partner) above
In short: as §1

[4] = test system: MDA-MB-231 cells (human breast adenocarcinoma cells); test: Tumor cell proliferation inhibition, CCK-8; assay type: cell-based; conditions: MDA-MB-231 cells, CCK-8, read-out: inhibitory activity (IC50, nM) MDA-MB-231
Procedure: (§2) The tumor cells used herein were cultured in a cell culture medium listed in table 2 at 37° C. in an incubator with 5% CO2. Prior to experimentation, all cells used were correctly identified by STR profiling, and tested negative for mycoplasma through routine screenings.
(§3) IC50 values of the compounds of the present disclosure (including the compounds in Table 1 and the Examples 1-305 compounds) were measured using the Meilun Cell Counting Kit-8 kit from Dalian Meilun Biotech Co., Ltd. Assay details are as follows: tumor cells were seeded in a 96-well plate at a density listed in Table 5. After 24 h, 100 μL of the inoculated cells were treated with 0.5 μL of the compounds of the present disclosure (including the compounds in Table 1 and the Examples 1-305 compounds) at 10 different successively decreasing concentrations (starting at the highest concentration of 10 μM; 5-fold serial dilutions). After the cells were treated with the compounds of the present disclosure for a period of time, the cell viability detection reagent was added to the culture medium for cell viability assessment according to the instructions provided with the CCK-8 kit. […] The growth inhibition of the compounds of the present disclosure on cells was plotted by Prism Graphpad software, and the IC50 values of the compounds of the present disclosure were calculated therefrom.

[5] = test system: TMD8 cells (human diffuse large B-cell lymphoma cells); test: Tumor cell proliferation inhibition, CCK-8; assay type: cell-based; conditions: TMD8 cells, CCK-8, read-out: inhibitory activity (IC50, nM) TMD8
Procedure: as §2, §3

[6] = test system: MM.1S cells (human multiple myeloma cells); test: Tumor cell proliferation inhibition, CCK-8; assay type: cell-based; conditions: MM1.S, MM.1S cells, CCK-8, read-out: inhibitory activity (IC50, nM) MM.1S
Procedure: as §2, §3

[7] = test system: H146 cells (human small cell lung carcinoma cells); test: Tumor cell proliferation inhibition, CCK-8; assay type: cell-based; conditions: NCI-H146, H146 cells, CCK-8, read-out: inhibitory activity (IC50, nM) H146
Procedure: as §2, §3

[8] = target: GSPT1 (Homo sapiens (Human), UniProt P15170+Q96SW2); test: Western blot, substrate protein expression in hPBMC: GSPT1; assay type: cell-based; conditions: hPBMC, compound 500 nM, 24 hours, Western blot
Sequence of GSPT1 (P15170 whole entry): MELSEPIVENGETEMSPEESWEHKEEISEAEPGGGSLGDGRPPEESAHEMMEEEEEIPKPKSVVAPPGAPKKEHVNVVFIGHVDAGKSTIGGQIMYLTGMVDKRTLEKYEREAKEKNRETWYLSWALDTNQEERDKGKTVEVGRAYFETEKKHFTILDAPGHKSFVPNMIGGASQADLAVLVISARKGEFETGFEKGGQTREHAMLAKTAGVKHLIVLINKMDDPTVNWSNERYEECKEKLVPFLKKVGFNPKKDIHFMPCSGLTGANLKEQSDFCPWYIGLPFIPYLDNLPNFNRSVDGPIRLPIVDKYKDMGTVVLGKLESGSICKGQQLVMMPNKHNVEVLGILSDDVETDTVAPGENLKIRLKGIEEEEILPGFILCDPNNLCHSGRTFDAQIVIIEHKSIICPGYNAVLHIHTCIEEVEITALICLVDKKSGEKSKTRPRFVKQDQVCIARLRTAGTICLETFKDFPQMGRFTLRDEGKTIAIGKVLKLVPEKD
Sequence of GSPT1 (Q96SW2 whole entry): as the sequence (Q96SW2 whole entry) above
Sequence of GSPT1 (Q16531 whole entry partner): as the sequence (Q16531 whole entry partner) above
In short: as §1

Sequence of human Cereblon WT GST-tagged protein (Q96SW2 whole entry): as the sequence (Q96SW2 whole entry) above

O=C1CCC(N2Cc3cc(C(=O)N4CCN(C(c5cc(F)cc(F)c5)c5cc(F)cc(F)c5)CC4)ccc3C2=O)C(=O)N1 (centres unmarked) [GT-06597, 3-(5-(4-(bis(3,5-difluorophenyl)methyl)piperazine-1-carbonyl)-1-oxoisoindolin-2-yl)piperidine-2,6-dione]
IC50 [1]: 500 to 1000 nM
substrate protein remaining % IKZF3 [2]: A (A represents 0% ≤ substrate protein remaining % ≤ 50%)
substrate protein remaining % IKZF1 [3]: A (A represents 0% ≤ substrate protein remaining % ≤ 50%)
IC50 [4]: 50 to 100 nM
IC50 [5]: 100 to 500 nM
IC50 [6]: 10 to 50 nM
IC50 [7]: 10 to 50 nM
substrate protein remaining % GSPT1 [8]: A (A represents 0% ≤ substrate protein remaining % ≤ 50%)

O=C1CCC(N2C(=O)c3ccc(CN4CCN(C(c5cc(F)cc(F)c5)c5cc(F)cc(F)c5)CC4)cc3C2=O)C(=O)N1 (centres unmarked) [GT-06596, 5-((4-(bis(3,5-difluorophenyl)methyl)piperazin-1-yl)methyl)-2-(2,6-dioxopiperidin-3-yl) isoindoline-1,3-dione]
substrate protein remaining % IKZF3 [2]: A (A represents 0% ≤ substrate protein remaining % ≤ 50%)
substrate protein remaining % IKZF1 [3]: A (A represents 0% ≤ substrate protein remaining % ≤ 50%)
IC50 [4]: 100 to 500 nM
IC50 [5]: 500 to 1000 nM
IC50 [6]: 50 to 100 nM
IC50 [7]: 100 to 500 nM
substrate protein remaining % GSPT1 [8]: A (A represents 0% ≤ substrate protein remaining % ≤ 50%)

O=C1CCC(N2Cc3cc(CN4CCN(C(c5cc(F)cc(F)c5)c5cc(F)cc(F)c5)CC4)ccc3C2=O)C(=O)N1 (centres unmarked) [GT-06387, 3-(5-((4-(bis(3,5-difluorophenyl)methyl)piperazin-1-yl)methyl)-1-oxoisoindolin-2-yl)piperidine-2,6-dione]
IC50 [1]: 1000 to 1900 nM
substrate protein remaining % IKZF3 [2]: A (A represents 0% ≤ substrate protein remaining % ≤ 50%)
substrate protein remaining % IKZF1 [3]: B (B represents substrate protein remaining % > 50%)
IC50 [4]: 1 to 10 nM
IC50 [5]: 1 to 10 nM
IC50 [6]: < 1 nM
IC50 [7]: 1 to 10 nM
substrate protein remaining % GSPT1 [8]: A (A represents 0% ≤ substrate protein remaining % ≤ 50%)

O=C1CCC(N2Cc3cc(CN4CCC(N(c5ccccc5)c5ccccc5)CC4)cc(F)c3C2=O)C(=O)N1 (centres unmarked) [GT-06133, 3-(5-((4-(diphenylamino)piperidin-1-yl)methyl)-7-fluoro-1-oxoisoindolin-2-yl)piperidine-2,6-dione]
IC50 [1]: < 500 nM
substrate protein remaining % IKZF3 [2]: B (B represents substrate protein remaining % > 50%)
substrate protein remaining % IKZF1 [3]: B (B represents substrate protein remaining % > 50%)
IC50 [4]: 500 to 1000 nM
IC50 [6]: 10 to 50 nM
IC50 [7]: 100 to 500 nM
substrate protein remaining % GSPT1 [8]: A (A represents 0% ≤ substrate protein remaining % ≤ 50%)

O=C1CCC(N2Cc3cc(CCN4CCN(C(c5ccccc5)c5ccccc5)CC4)ccc3C2=O)C(=O)N1 (centres unmarked) [GT-05696, 3-(5-(2-(4-benzhydrylpiperazin-1-yl)ethyl)-1-oxoisoindolin-2-yl)piperidine-2,6-dione]
IC50 [1]: < 500 nM
substrate protein remaining % IKZF3 [2]: A (A represents 0% ≤ substrate protein remaining % ≤ 50%)
substrate protein remaining % IKZF1 [3]: A (A represents 0% ≤ substrate protein remaining % ≤ 50%)
IC50 [6]: 50 to 100 nM
substrate protein remaining % GSPT1 [8]: A (A represents 0% ≤ substrate protein remaining % ≤ 50%)

O=C1CCC(N2Cc3cc(C(=O)N4CCN(C(c5cccc(F)c5)c5cccc(F)c5)CC4)ccc3C2=O)C(=O)N1 (centres unmarked) [GT-06146, 3-(5-(4-(bis(3-fluorophenyl)methyl)piperazine-1-carbonyl)-1-oxoisoindolin-2-yl)piperidine-2,6-dione]
IC50 [1]: < 500 nM
substrate protein remaining % IKZF3 [2]: A (A represents 0% ≤ substrate protein remaining % ≤ 50%)
substrate protein remaining % IKZF1 [3]: A (A represents 0% ≤ substrate protein remaining % ≤ 50%)
IC50 [4]: 100 to 500 nM
IC50 [5]: 500 to 1000 nM
IC50 [6]: 10 to 50 nM
IC50 [7]: 100 to 500 nM
substrate protein remaining % GSPT1 [8]: A (A represents 0% ≤ substrate protein remaining % ≤ 50%)

O=C1CCC(N2Cc3cc(C(=O)N4CCN(C(c5ccccc5F)c5ccccc5F)CC4)ccc3C2=O)C(=O)N1 (centres unmarked) [GT-06104, 3-(5-(4-(bis(2-fluorophenyl)methyl)piperazine-1-carbonyl)-1-oxoisoindolin-2-yl)piperidine-2,6-dione]
IC50 [1]: < 500 nM
substrate protein remaining % IKZF3 [2]: B (B represents substrate protein remaining % > 50%)
substrate protein remaining % IKZF1 [3]: A (A represents 0% ≤ substrate protein remaining % ≤ 50%)
IC50 [4]: 500 to 1000 nM
IC50 [6]: 10 to 50 nM
IC50 [7]: 100 to 500 nM
substrate protein remaining % GSPT1 [8]: A (A represents 0% ≤ substrate protein remaining % ≤ 50%)

O=C1CCC(N2Cc3cc(CN4CC5CN(C(c6ccccc6)c6ccccc6)CC5C4)c(F)cc3C2=O)C(=O)N1 (centres unmarked) [GT-06051, 3-(5-((5-benzhydrylhexahydropyrrolo[3,4-c]pyrrol-2 (1H)-yl)methyl)-6-fluoro-1-oxoisoindolin-2-yl)piperidine-2,6-dione]
IC50 [1]: 500 to 1000 nM
substrate protein remaining % IKZF3 [2]: B (B represents substrate protein remaining % > 50%)
substrate protein remaining % IKZF1 [3]: B (B represents substrate protein remaining % > 50%)
IC50 [6]: 50 to 100 nM
IC50 [7]: 100 to 500 nM
substrate protein remaining % GSPT1 [8]: A (A represents 0% ≤ substrate protein remaining % ≤ 50%)

O=C1CCC(N2Cc3cc(CN4CCN(C(c5ccc(C(F)(F)F)cc5)c5ccc(C(F)(F)F)cc5)CC4)ccc3C2=O)C(=O)N1 (centres unmarked) [GT-06199, 3-(5-((4-(bis(4-(trifluoromethyl)phenyl)methyl)piperazin-1-yl)methyl)-1-oxoisoindolin-2-yl)piperidine-2,6-dione]
substrate protein remaining % IKZF3 [2]: A (A represents 0% ≤ substrate protein remaining % ≤ 50%)
substrate protein remaining % IKZF1 [3]: A (A represents 0% ≤ substrate protein remaining % ≤ 50%)
IC50 [6]: 10 to 50 nM
substrate protein remaining % GSPT1 [8]: A (A represents 0% ≤ substrate protein remaining % ≤ 50%)

O=C1CCC(N2C(=O)c3ccc(CN4CCN(C(c5cccc(F)c5)c5cccc(F)c5)CC4)cc3C2=O)C(=O)N1 (centres unmarked) [GT-06118, 5-((4-(bis(3-fluorophenyl)methyl)piperazin-1-yl)methyl)-2-(2,6-dioxopiperidin-3-yl) isoindoline-1,3-dione]
substrate protein remaining % IKZF3 [2]: A (A represents 0% ≤ substrate protein remaining % ≤ 50%)
substrate protein remaining % IKZF1 [3]: A (A represents 0% ≤ substrate protein remaining % ≤ 50%)
IC50 [5]: 500 to 1000 nM
IC50 [6]: 50 to 100 nM
IC50 [7]: 100 to 500 nM
substrate protein remaining % GSPT1 [8]: A (A represents 0% ≤ substrate protein remaining % ≤ 50%)

O=C1CCC(N2C(=O)c3ccc(CN4CCC(N(c5ccccc5)c5ccccc5)CC4)cc3C2=O)C(=O)N1 (centres unmarked) [GT-05741, 2-(2,6-dioxopiperidin-3-yl)-5-((4-(diphenylamino)piperidin-1-yl)methyl) isoindoline-1,3-dione]
substrate protein remaining % IKZF3 [2]: A (A represents 0% ≤ substrate protein remaining % ≤ 50%)
substrate protein remaining % IKZF1 [3]: A (A represents 0% ≤ substrate protein remaining % ≤ 50%)
IC50 [4]: 100 to 500 nM
IC50 [6]: 10 to 50 nM
IC50 [7]: 50 to 100 nM
substrate protein remaining % GSPT1 [8]: A (A represents 0% ≤ substrate protein remaining % ≤ 50%)

O=C1CCC(N2Cc3cc(C(=O)N4CCC(N(c5ccccc5)c5ccccc5)CC4)cc(F)c3C2=O)C(=O)N1 (centres unmarked) [GT-05927, 3-(5-(4-(diphenylamino)piperidine-1-carbonyl)-7-fluoro-1-oxoisoindolin-2-yl)piperidine-2,6-dione]
IC50 [1]: < 500 nM
substrate protein remaining % IKZF3 [2]: B (B represents substrate protein remaining % > 50%)
substrate protein remaining % IKZF1 [3]: B (B represents substrate protein remaining % > 50%)
substrate protein remaining % GSPT1 [8]: A (A represents 0% ≤ substrate protein remaining % ≤ 50%)

O=C1CCC(N2Cc3cc(C(=O)N4CCN(C(c5ccc(F)cc5)c5ccc(F)cc5)CC4)cc(F)c3C2=O)C(=O)N1 (centres unmarked) [GT-05882, 3-(5-(4-(bis(4-fluorophenyl)methyl)piperazine-1-carbonyl)-7-fluoro-1-oxoisoindolin-2-yl)piperidine-2,6-dione]
IC50 [1]: 500 to 1000 nM
substrate protein remaining % IKZF3 [2]: B (B represents substrate protein remaining % > 50%)
substrate protein remaining % IKZF1 [3]: B (B represents substrate protein remaining % > 50%)
substrate protein remaining % GSPT1 [8]: A (A represents 0% ≤ substrate protein remaining % ≤ 50%)
